Laboratory results as given in patent EP4509497A1, “METHOD FOR PRODUCING ACETYLSALICYLIC ACID NICOTINAMIDE COCRYSTALS AND ACETYLSALICYLIC ACID NICOTINAMIDE COCRYSTALS WITH IMPROVED SOLUBILITY” (Ruhr-Universität Bochum, priority 2023, dated 2025).
Converted amounts (≈) assume the structure as drawn.

Assay: Solubility determination (gravimetric, saturated aqueous samples)
Format: physicochemical
Experimental: Es wurden 15 mL gesättigter wässriger Proben mit Niederschlag in 20 mL-Fläschchen mit dem Acetylsalicylsäure-Nicotinsäureamid-Co-Kristall (1:1), ASS und NIC angesetzt. Die Proben wurden bei Raumtemperatur mit einem Magnetrührer homogenisiert. Nach 1 h und 2 h werden von jeder Probe 4-mal ca. 1 mL Lösung entnommen (4-fach Bestimmung) und durch ein Vorspritzfilter in ein leeres 4 mL Fläschchen überführt. Die Fläschchen werden dann bis zur Verdampfung des Lösemittels offen stehengelassen. Die Fläschchen wurden leer, mit der gesättigten Lösung und nach dem Verdampfen gewogen. Die Löslichkeit in Masseprozent ergibt sich über die Differenz aus Gewicht nach dem Verdampfen und dem Leegewicht.

Compound | solubility thermodynamic at 1 h (water) [µg/mL] | solubility thermodynamic at 2 h (water) [µg/mL] | ASS-Löslichkeit gesteigert um einen Faktor (ASS in co-crystal (ASS:NA 1:1) versus pure ASS, Fig. 7, after 1 h) | Löslichkeit Nach 1 h (water, 1 h) | Löslichkeit Nach 1 h (ASS im Co-Kristall) (water, 1 h) | Löslichkeit Nach 2 h (water, 2 h) | Löslichkeit Nach 2 h (ASS im Co-Kristall) (water, 2 h)
CC(=O)Oc1ccccc1C(=O)O [Acetylsalicylsäure, 2-Acetoxybenzoesäure, reference compound] | 4140 (≈ 23 mM) | 4260 (≈ 23.6 mM) |  |  |  |  | 
Acetylsalicylsäure-Nicotinsäureamid-Co-Kristall |  |  | ca. 2,5 | 1,768 ω % | 1,054 ω % | 1,777 ω % | 1,059 ω %
